The values below come from PMC9516332 (Frontiers in Oncology, 2022).

What all share (experiment): Kinase panel profiling at 1 µmol/L (MSA or IMAP), percentage inhibition
Holding throughout (type): biochemical

Experiment [1] addresses panel of 255 wild-type kinases (Homo sapiens, UniProt P31749). The following applies: AKT1 kinase assay; 1 µmol/L single concentration; read-out: %-inhibition AKT1.
Experiment [2] concerns the target panel of 255 wild-type kinases (Homo sapiens, UniProt P21802). To be noted: kinase FGFR2; 1 µmol/L single concentration; read-out: %-inhibition at 1 µmol/L, FGFR2.
The target in experiment [3] is panel of 255 wild-type kinases (Homo sapiens, UniProt P22455). To be noted: kinase FGFR4; 1 µmol/L single concentration; read-out: %-inhibition at 1 µmol/L, FGFR4.
Experiment [4] has as its target panel of 255 wild-type kinases (Homo sapiens, UniProt Q15303). The following applies: kinase HER4; 1 µmol/L single concentration; read-out: %-inhibition at 1 µmol/L, HER4.
In experiment [5] the target is panel of 255 wild-type kinases (Homo sapiens, UniProt P48729). The following applies: kinase CK1α; 1 µmol/L single concentration; read-out: %-inhibition at 1 µmol/L, CK1α.
The target in experiment [6] is panel of 255 wild-type kinases (Homo sapiens, UniProt Q15759). The following applies: p38β; 1 µmol/L single concentration; read-out: %-inhibition, p38β.
Experiment [7] addresses panel of 255 wild-type kinases (Homo sapiens, UniProt P23443). The following applies: p70S6K; 1 µmol/L single concentration; read-out: %-inhibition, p70S6K.
The target of experiment [8] is panel of 255 wild-type kinases (Homo sapiens, UniProt Q8IY84). To be noted: NIM1K; 1 µmol/L single concentration; read-out: %-inhibition, NIM1K.
Experiment [9] deals with T1, panel of 255 wild-type kinases (Homo sapiens, UniProt Q96KB5).
T1 sequence (Q96KB5 1-322): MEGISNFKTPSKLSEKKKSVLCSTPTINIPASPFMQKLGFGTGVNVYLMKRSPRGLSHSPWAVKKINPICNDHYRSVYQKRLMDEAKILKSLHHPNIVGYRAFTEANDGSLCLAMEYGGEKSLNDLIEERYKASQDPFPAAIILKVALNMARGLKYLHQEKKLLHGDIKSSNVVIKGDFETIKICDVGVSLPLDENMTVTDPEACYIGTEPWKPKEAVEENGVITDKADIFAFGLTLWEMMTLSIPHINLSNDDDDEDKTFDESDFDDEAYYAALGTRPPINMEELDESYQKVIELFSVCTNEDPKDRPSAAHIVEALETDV
The following applies: kinase PBK; 1 µmol/L single concentration; read-out: %-inhibition at 1 µmol/L, PBK.

The target in experiment [10] is panel of 255 wild-type kinases (Homo sapiens, UniProt Q9Y3S1). The following applies: kinase WNK2; 1 µmol/L single concentration; read-out: %-inhibition at 1 µmol/L, WNK2.
For experiment [11], the target named is panel of 255 wild-type kinases (Homo sapiens, UniProt P43405). The following applies: kinase SYK; 1 µmol/L single concentration; read-out: %-inhibition at 1 µmol/L, SYK.
Experiment [12] addresses panel of 255 wild-type kinases (Homo sapiens, UniProt Q05655). To be noted: kinase PKCδ; 1 µmol/L single concentration; read-out: %-inhibition at 1 µmol/L, PKCδ.
For experiment [13], the target named is panel of 255 wild-type kinases (Homo sapiens, UniProt Q9UQM7). The following applies: CaMK2α kinase assay; 1 µmol/L single concentration; read-out: %-inhibition CaMK2α.
Experiment [14] has as its target panel of 255 wild-type kinases (Homo sapiens, UniProt P14616). To be noted: kinase IRR; 1 µmol/L single concentration; read-out: %-inhibition at 1 µmol/L, IRR.
Experiment [15] addresses T2, panel of 255 wild-type kinases (Homo sapiens, UniProt Q9NRM7).
T2 sequence (Q9NRM7 1-1088): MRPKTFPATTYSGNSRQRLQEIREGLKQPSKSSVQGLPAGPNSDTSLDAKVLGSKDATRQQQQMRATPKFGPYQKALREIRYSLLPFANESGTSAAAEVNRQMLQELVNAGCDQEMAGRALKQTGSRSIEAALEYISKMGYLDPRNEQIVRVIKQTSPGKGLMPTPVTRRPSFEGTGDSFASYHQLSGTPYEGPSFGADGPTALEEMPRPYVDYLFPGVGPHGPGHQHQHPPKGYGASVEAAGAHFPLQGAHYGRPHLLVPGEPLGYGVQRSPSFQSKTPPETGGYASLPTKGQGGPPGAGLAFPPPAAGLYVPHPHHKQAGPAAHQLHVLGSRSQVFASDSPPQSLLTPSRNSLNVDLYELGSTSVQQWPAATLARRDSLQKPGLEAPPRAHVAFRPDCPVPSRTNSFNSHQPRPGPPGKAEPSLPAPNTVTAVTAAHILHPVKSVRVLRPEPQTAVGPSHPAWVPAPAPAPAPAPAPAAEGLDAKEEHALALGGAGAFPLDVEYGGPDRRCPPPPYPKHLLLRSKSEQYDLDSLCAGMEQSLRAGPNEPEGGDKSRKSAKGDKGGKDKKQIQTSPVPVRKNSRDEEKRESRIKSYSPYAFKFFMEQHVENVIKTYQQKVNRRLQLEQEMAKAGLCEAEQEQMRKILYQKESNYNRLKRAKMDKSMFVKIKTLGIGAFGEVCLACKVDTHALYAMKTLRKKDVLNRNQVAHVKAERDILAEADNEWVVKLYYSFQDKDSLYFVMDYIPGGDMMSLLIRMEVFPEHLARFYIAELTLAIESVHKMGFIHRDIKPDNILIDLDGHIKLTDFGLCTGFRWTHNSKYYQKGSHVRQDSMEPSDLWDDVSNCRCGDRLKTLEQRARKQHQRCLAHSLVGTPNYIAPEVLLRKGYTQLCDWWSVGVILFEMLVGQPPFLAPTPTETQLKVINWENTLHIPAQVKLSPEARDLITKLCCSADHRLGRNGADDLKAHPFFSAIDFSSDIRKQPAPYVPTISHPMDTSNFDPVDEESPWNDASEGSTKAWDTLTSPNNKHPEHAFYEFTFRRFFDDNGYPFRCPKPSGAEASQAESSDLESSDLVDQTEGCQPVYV
To be noted: kinase LATS2; 1 µmol/L single concentration; read-out: %-inhibition at 1 µmol/L, LATS2.

As to `COc1cc2ncnc(Nc3ccc(F)c(Cl)c3)c2cc1NC(=O)/C=C/CN1CCCCC1` [dacomitinib], the inhibition at 1 µM in experiment [1] was -22%; in experiment [2] it was 16%; in experiment [3], -4.42%; in experiment [4] it was 103%; in experiment [5], 8%; in experiment [6], 8.44%. Further, the inhibition at 1 µM in experiment [7] is 33%; in experiment [8], 1.1%; in experiment [9], -3.28%; in experiment [10], -4%; in experiment [11] it was -8%; in experiment [12], 9%. For the same compound, the inhibition at 1 µM was -1.13% in experiment [13], 6% in [14] and 11% in experiment [15].
`C[C@H](Nc1ncnc2nc[nH]c12)c1cc2cccc(Cl)c2c(=O)n1-c1ccccc1` [duvelisib]: the inhibition at 1 µM is -6% in experiment [1]; 5% in [2]; 5% in experiment [3]; -0.702% in [4]; -2% in [5]; 0.677% in experiment [6]. Further, the inhibition at 1 µM in [7] was 6%; in experiment [8], -3.41%; in [9], -1.84%; in experiment [10], -1.82%; in experiment [11], -2.35%; in [12], 1.67%. For the same compound, the results for the inhibition at 1 µM in experiment [13], in experiment [14] and in [15] were 0.0129%, 7% and 8%, respectively.
`COC(=O)N[C@@H](C)CNc1nccc(-c2cn(C(C)C)nc2-c2cc(Cl)cc(NS(C)(=O)=O)c2F)n1` [encorafenib]: the inhibition at 1 µM in [1] is -2%; in experiment [2], 4%; in experiment [3] it was 4.23%; in experiment [4] it was 14%; in [5], 36%; in experiment [6], 56%. Also, the inhibition at 1 µM in [7] was 14%; in experiment [8], -12%; in [9] it was 8%; in experiment [10] it was -0.751%; in experiment [11], -20%; in [12] it was -2.67%. Also, the inhibition at 1 µM is -2.55% in experiment [13], -3.65% in experiment [14] and 3.49% in experiment [15].
`CCc1nc(C(N)=O)c(Nc2ccc(N3CCC(N4CCN(C)CC4)CC3)c(OC)c2)nc1NC1CCOCC1` [gilteritinib]: the inhibition at 1 µM is -22% in experiment [1]; 61% in experiment [2]; 15% in experiment [3]; 83% in experiment [4]; 13% in experiment [5]; 6% in experiment [6]. Moreover, the inhibition at 1 µM in [7] is 79%; in experiment [8], 29%; in experiment [9], -2.54%; in experiment [10] it was -1%; in experiment [11] it was 70%; in [12] it was 12%. Further, the inhibition at 1 µM in experiment [13] stood at 36%; in experiment [14] it was 100%; in experiment [15] it was 44%.
As to `O=C(Nc1cnn2ccc(N3CCC[C@@H]3c3cc(F)ccc3F)nc12)N1CC[C@H](O)C1` [larotrectinib], the inhibition at 1 µM in experiment [1] is -15%; in experiment [2], -6.46%; in experiment [3], 6%; in experiment [4], 10%; in experiment [5], 1.46%; in [6] it was -0.0712%. The inhibition at 1 µM in [7] is -1.58%; in experiment [8], -1.85%; in experiment [9] it was -5.44%; in experiment [10] it was -2%; in [11] it was -8%; in [12], -5%. Moreover, the inhibition at 1 µM in experiment [13] is 2.74%; in experiment [14], 1.69%; in experiment [15] it was -3%.
For `C[C@H]1Oc2cc(cnc2N)-c2c(nn(C)c2C#N)CN(C)C(=O)c2ccc(F)cc21` [lorlatinib], the inhibition at 1 µM is -4% in [1]; 5.32% in experiment [2]; 20% in [3]; 11% in experiment [4]; -12% in [5]; 1.15% in [6]. In addition, the inhibition at 1 µM in [7] is 8%; in experiment [8], 1.32%; in [9], 1.39%; in experiment [10], -0.739%; in experiment [11], 16%; in [12] it was 5%. The inhibition at 1 µM stood at 3.76% in experiment [13], 78% in experiment [14] and 6% in experiment [15].
Regarding `FC(F)(F)c1ccc(CNc2ccc(Cc3c[nH]c4ncc(Cl)cc34)cn2)cn1` [pexidartinib], the inhibition at 1 µM was -20% in experiment [1]; 62% in experiment [2]; 7.42% in experiment [3]; 13% in experiment [4]; 4.47% in experiment [5]; 0.844% in [6]. The inhibition at 1 µM in experiment [7] was 31%; in experiment [8], -1.06%; in experiment [9] it was -1.68%; in experiment [10] it was -1.8%; in experiment [11] it was -6%; in [12] it was 6.48%. Moreover, the inhibition at 1 µM is -4% in experiment [13], 14% in experiment [14] and 4% in [15].
